Laboratory results taken from US20190203254A1, “CORTICAL NEURON CELL MODEL OF ALZHEIMER'S DISEASE BASED ON BMI1 DEFICIENCY, AND USES THEREOF” (9636137 Canada Inc., priority 2016, published 2019).

Experiments:
shBMI1 neurons [1] = assay: Ab42 levels by ELISA in shBMI1 neurons treated with BSI (FIG. 3H); format: cell-based, human; conditions: BSI vs vehicle control
Source text: (§1) FIG. 3 is a panel with pictures and graphs illustrating that BMI1 deficiency in neurons results in p-Tau and amyloid accumulation. FIG. 3A: p-Tau (PHF1) accumulation in shBMI1 neurons but not in shCTL neurons (day 14). Scale bar: 40 mm. FIG. 3B: p-Tau (PHF1) accumulation in broken axonal segments of glutamatergic shBMl1 neurons (arrows), and co-localization of p-Tau with vGLUT1 in axonal swellings (arrows in the inset). Scale bar: 40 mm. FIG. 3C: Quantification of PHF1-positive neurons and of p-Tau foci/axon in shCTL (n=3) and shBMI1 (n=3) cultures. All values are mean±SEM. (*) P<0.05; (**) P<0.01 by Student's unpaired t-test. FIG. 3D: Confocal immunofluorescence for the apoptosis marker activated caspase-3 in shCTL and shBMl1 cultures. Scale bar: 40 mm. FIG. 3E: Quantification of activated caspase-3 positive cells in GABA+ and GABA− neuronal populations. All values are mean±SEM. (*) P<0.05 by Student's unpaired t-test. FIG. 3F: Amyloid accumulation in shBMl1 neurons as compared to shCTL neurons using the MOAB2 or PA3 antibodies. Scale bars: 40 mm. FIG. 3G: Confocal immunofluorescence for oligomeric amyloid (NU1) and Ab42 (PA3) of shCTL and shBMI1 neurons treated with beta-secretase inhibitor (BSI) or vehicle control. FIG. 3H: Intracellular and extracellular Ab42 levels in shCTL (n=3) and shBMl1 (n=3) neurons by ELISA. […]

shBMI1 neurons [2] = assay: Confocal immunofluorescence for oligomeric amyloid (NU1) and Ab42 (PA3) in shBMI1 neurons treated with BSI (FIG. 3G); format: cell-based, human; conditions: BSI vs vehicle control
Source text: as §1

shBMI1 neurons [3] = format: cell-based, human
Source text: FIG. 5 is a panel with pictures and graphs illustrating that BMI1 deficiency in neurons results in activation of MAPT, GSK3b and p53. FIG. 5A: Immunoblots for AD-related proteins in shCTL, shBMI1 and BMI1 overexpressing (BMI1 OE) neurons. Protein expression ratios were established using Ponceau staining and where expression in shCTL neurons was set as 1. FIG. 5B: Confocal analysis of F-Actin (phalloidin), amyloid (PA3), p-Tau (PHF1) and activated caspase-3 (Casp3a) in shBMI1 neurons treated with DMSO, β-secretase inhibitor (BSI), γ-secretase inhibitor (GSI) or y-secretase modulator (GSM). Quantification was established using shCTL neurons set as 1. Scale bar: 40 μm.
Human embryonic stem cells were differentiated into cortical neurons. The differentiation protocol was based on a previous study (Espuny-Camacho, I., et al., Pyramidal neurons derived from human pluripotent stem cells integrate efficiently into mouse brain circuits in vivo. Neuron 77, 440-456, (2013)). However, the Noggin agonist LDN193189 was used to reduce recombinant Noggin concentration. The H9 (WiCell™) and HUES9 (Harvard Stem Cell Institute) cell lines were dissociated using Accutase™ (Innovative Cell Technology #AT-104) and platted on growth factor reduced Matrigel™ (Corning #356231) in PeproGrow™ hES cell media (PeproTech #BM-hESC) supplemented with ROCK™ inhibitor (Y-27632; 10 μM, Cayman Chemical #10005583). Upon 70% of confluency, the media was changed to DDM supplemented with B27 (1× final), Noggin (10 ng/ml, PeproTech #120-10C) and LDN193189 (0.5 μM; Sigma #SML0559). The medium was changed every day. After 16 days of differentiation, the medium was changed to DDM/B27 and replenished every day. At day 24, neural progenitors were manually detached from the plate and mixed with lentiviral supernatant for 30 min at 37° C. Infected neural progenitors were subsequently mixed in DDM/B27 supplemented with ROCK™ inhibitor (Y-27632; 10 μM) and platted on growth factor reduced Matrigel™ coated plates or chamber slides (LabTek™ #154534). Five days after the dissociation/infection, half of the medium was changed for Neurobasal™ A media supplemented with B27 (1× final) and changed again every three days. For 3D cultures, neural progenitors at day 24 were mixed with ice-cold growth factor reduced Matrigel™ (1:20 dilution) and plated onto 8-well chamber slides. After 30 min of incubation at 37° C., fresh Neurobasal™ A/B27 were added.
Sequence-specific oligonucleotides stretch shRNA designed to target the BMI-1 ORF (accession No.: BC011652): were synthetized. Oligo#1 (nt 1061-1081) 5′-CCTAATACT TTCCAGATTGAT-3′ (SEQ ID NO: 3) and oligoScramble (nt 573-591) 5′-GGTACTTCATTGATGCCAC-3′ (SEQ ID NO: 4) were used in this study. These sequences are followed by the loop sequence (TTCAAGAGA) (SEQ ID NO: 5) and finally the reverse complements of the targeting sequences. The double stranded shRNA sequences were cloned downstream of the H1P promoter of the H1 P-UbqC-HygroEGFP plasmid using Age1, SmaI, and XbaI cloning sites. The shRNA-expressing lentiviral plasmids were cotransfected with plasmids pCMVdR8.9 and pHCMV-G into 293FT packaging cells using Lipofectamin™ (Invitrogen) according to the manufacturers instructions. Viral containing media were collected, filtered, and concentrated by ultracentrifugation. Viral titers were measured by serial dilution on 293T cells followed by microscopic analysis 48 hr later. For viral transduction, lentiviral vectors were added to dissociated cells prior to plating. […]

sAD patients = conditions: tested and abandoned in 2014 {De Strooper; cited from earlier work
[4] = BMI1-deficient neurons, working concentration BSI 1 μM, GSI 0.5 μM, GSM 30 μM, FIG. 5B

amyloid immuno-reactivity (PA3) / C99/amyloid accumulation (shBMI1 neurons [3]; [4]) | p-Tau (PHF1) immuno-reactivity / intensity (shBMI1 neurons [3]; [4]) | most pathological parameters (shBMI1 neurons [3]; BMI1-deficient neurons, working concentration GSI 0.5 μM, GSM 30 μM, FIG. 5B) | SMILES | amyloid (Ab42) concentration by ELISA (shBMI1 neurons [1]) | amyloid immunoreactivity (antibodies against Ab42) (shBMI1 neurons [2]) | toxicity for BMI1-knockdown human cortical neurons (shBMI1 neurons [3]) | p-Tau localization (shBMI1 neurons [3]; BMI1-deficient neurons, GSI 0.5 μM, FIG. 5B) | neuro-toxicity in sAD patients (sAD patients)
– | – | – | C[C@@H](NC(=O)c1cc(C(=O)N[C@@H](Cc2ccccc2)[C@H](O)CNC2CC2)cc(N(C)S(C)(=O)=O)c1)c1ccccc1 [BSI, BSI-IV] | normalized | highly reduced | – | – | –
reached saturation levels | reduced | did not improve | C[C@H](NC(=O)Cc1cc(F)cc(F)c1)C(=O)N[C@H](C(=O)OC(C)(C)C)c1ccccc1 [GSI, DAPT] | – | – | toxic | re-localization of p-Tau to the neuronal soma suggested tangle formation | high
